Data: PubChem BioAssay (NCI)
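48-hour exposure; five concentrations; linearly interpolated endpoints. The concentration for 50% growth inhibition is given as GI50. Definition used: TGI = concentration required for complete inhibition of growth.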

Experiments:
Experiment in all cases: DTP human tumour cell line panel, 48 h
[1] = tested on: HOP-62 NSCLC
[2] = tested on: OVCAR-4 ovarian
[3] = tested on: LOX IMVI melanoma
[4] = tested on: MOLT-4 leukemia
[5] = tested on: OVCAR-8 ovarian
[6] = tested on: COLO 205 colon
[7] = tested on: IGROV1 ovarian
[8] = tested on: HOP-92 NSCLC
[9] = tested on: SN12C renal
[10] = tested on: NCI-H23 lung

| SMILES | TGI [1] [µM] | TGI [2] [µM] | TGI [3] [µM] | TGI [4] [µM] | TGI [5] [µM] | TGI [6] [µM] | TGI [7] [µM] | TGI [8] [µM] | TGI [9] [µM] | TGI [10] [µM] | GI50 [1] [µM] | GI50 [2] [µM] | GI50 [3] [µM] | GI50 [4] [µM] | GI50 [5] [µM] | GI50 [6] [µM] | GI50 [7] [µM] | GI50 [8] [µM] | GI50 [9] [µM] | GI50 [10] [µM] |
| --- | --- | --- | --- | --- | --- | --- | --- | --- | --- | --- | --- | --- | --- | --- | --- | --- | --- | --- | --- | --- |
| O=C(O)C(Cc1ccc(O)c([N+](=O)[O-])c1)N1C(=O)c2ccccc2C1=O (stereo not given) | > 100 | > 100 | > 100 | > 100 | > 100 | > 100 | > 100 | > 100 | > 100 | > 100 |  |  |  |  |  |  |  |  |  |  |
| Nc1ccc2c(c1)[O][Sn]([c]1ccccc1)([c]1ccccc1)[O]C2=O | 34.9 | 28.4 | 11.5 | 29.7 | 28.2 | 13.2 | 29.2 | 7.11 | 20.4 | 8.58 | 19.6 | 12.9 | 3.57 | 5.01 | 13.2 | 6.58 | 12.4 | 2.59 | 7.24 | 2.76 |
| O=C(N/N=C/c1ccc(F)cc1)c1[nH]c2ccc(I)cc2c1-c1ccccc1 | 13.6 | > 87.4 | > 100 | > 36.9 | > 51.2 | 1.7 | 32.5 | > 92.3 | > 100 | > 25.1 | 0.577 | 0.702 | 0.767 | 1.24 | 0.971 | 0.482 | 0.45 | 12.5 | 1.63 | 0.551 |
| CC1(C)C(=O)/C(=C\c2ccco2)C[C@]2(C)[C@H]3CC=C4[C@@H]5C[C@](C)(C(=O)O)CC[C@]5(C)CC[C@@]4(C)[C@]3(C)CC[C@@H]12 | 28.5 | 27 | 22.2 | 26.7 | 42.4 | 25.5 | 28.3 | 17 | 26 | 25.4 | 10.1 | 12.8 | 9.56 | 4.37 | 6 | 9.31 | 8.56 | 3.83 | 7.64 | 8.89 |
| CCCCc1cc(O)ccc1O | > 100 | 26.3 | 63.6 | > 100 | > 100 | > 100 | > 100 | > 100 | > 100 | > 100 | 53.7 | 13.1 | 14.6 | 5.07 | 28.2 | 74.6 | 32.3 | 26.1 | 18.7 | 67.1 |
| COc1ccc(N=Cc2ccc(N(CCC#N)CCC#N)cc2)cc1 | > 100 | > 100 | > 100 | > 100 | > 100 | > 100 | > 100 | > 100 | > 100 | > 100 |  |  |  |  |  |  |  |  |  |  |
| COc1cccc2c1C1=CC(=O)CCC1C(C)(C)O2 (stereo not given) | > 100 | > 100 | > 100 | > 100 | > 100 | > 100 | > 100 | > 100 | > 100 | > 100 |  |  |  |  |  |  |  |  |  |  |
| CCc1ccc(C2=C(O)C(=O)C(c3ccc(CC)cc3)=C(O)C2=O)cc1 | 3.42 | 7.75 | 12.1 | 4.15 | 10.2 | 5.36 | 3.54 | 4.33 | 9.79 | 5.23 | 1.5 | 2.18 | 2.84 | 1.81 | 2.95 | 1.69 | 1.59 | 1.24 | 2.28 | 1.96 |
| COc1cc(C(C#N)NNC(=O)c2ccccc2O)ccc1O (stereo not given) | > 100 | > 100 | > 100 | > 100 | > 100 | > 100 | > 100 | 97.3 | > 100 | 10.4 |  |  |  |  |  |  |  |  |  |  |
